From ChEMBL document CHEMBL1201862, “PubChem BioAssay data set” (2004)
Calls of active or inactive are those of the source.

Key:
[1] = OVCAR-3 cell viability loss – plate reader, dry powder samples, PAX8 inhibitor project, dose response (AID 743044); type: functional, cell-based
[2] = OVCAR8 cell viability loss – plate reader, dry powder samples, PAX8 project, dose response (AID 743197); type: functional, cell-based; details: OVCAR-8
Paired box protein Pax-8 = Paired box protein Pax-8 (Homo sapiens, UniProt Q06710); assay: PAX8 transcriptional activity inhibition in RMG-I – RMG-I cells, luciferase, cherry-pick, dose response (AID 687027); type: functional, cell-based;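 note: luciferase reporter driven by Pax8 target thyroperoxidase promoter measured by SteadyGlo luminescence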
Sequence of Paired box protein Pax-8 (Q06710 whole entry): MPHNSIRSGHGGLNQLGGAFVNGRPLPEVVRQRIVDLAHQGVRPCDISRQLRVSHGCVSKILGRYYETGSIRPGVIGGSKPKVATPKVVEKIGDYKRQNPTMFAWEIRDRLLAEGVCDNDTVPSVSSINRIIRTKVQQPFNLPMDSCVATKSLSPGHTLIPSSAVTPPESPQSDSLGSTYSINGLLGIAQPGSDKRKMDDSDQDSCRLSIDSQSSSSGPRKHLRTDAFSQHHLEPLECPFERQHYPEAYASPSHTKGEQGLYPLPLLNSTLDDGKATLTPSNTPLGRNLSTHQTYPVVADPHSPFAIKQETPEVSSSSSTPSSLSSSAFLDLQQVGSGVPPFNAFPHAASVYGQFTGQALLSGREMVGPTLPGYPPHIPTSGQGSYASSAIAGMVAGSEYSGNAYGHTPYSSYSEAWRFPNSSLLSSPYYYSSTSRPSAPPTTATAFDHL

[3] = IGROV1 cell killing – plate reader, dry powder samples, PAX8 inhibitor project, dose response (AID 743043); type: functional, cell-based; details: IGROV-1
[4] = P. falciparum Dd2 growth inhibitors, dose response, SYBR Green, cherry-picked samples (AID 1159567); type: functional, cell-based
[5] = growth inhibition of PfATP4-mutant resistant parasites – NITD609-resistant line, SYBR Green, dry powder, dose response (AID 1159571); type: functional, cell-based;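 note: parasites synchronized at ring stage by sorbitol before testing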
[6] = Dd2 malaria parasite growth inhibition potency – SYBR Green, dry powder samples, dose response (AID 1159566); type: functional, cell-based;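 note: potency for growth inhibition with lower SYBR green DNA signal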
[7] = growth inhibition of yeast DHODH-expressing 3D7 parasites – SYBR Green, dry powder samples, dose response (AID 1159570); type: functional, cell-based;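 note: parasite growth measured after 72 hours of compound exposure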
[8] = IC50 of Artemis nuclease activity blockers – biochemical, fluorescence intensity, dose response (AID 720701); type: functional;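 note: Artemis endonuclease enzyme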
[9] = molecular target: NAD-dependent protein deacylase sirtuin-5, mitochondrial (Homo sapiens, UniProt Q9NXA8); assay: sirtuin-5 deacylation blockers, concentration series – biochemical, fluorescence imaging, cherry-pick, set 5, dose response (AID 720591);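 note: desuccinylation of succinyl peptide AMC substrate read as fluorescence after trypsin release; potency of inhibitors that lower fluorescence and may act on trypsin instead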
Sequence of NAD-dependent protein deacylase sirtuin-5, mitochondrial (Q9NXA8 whole entry): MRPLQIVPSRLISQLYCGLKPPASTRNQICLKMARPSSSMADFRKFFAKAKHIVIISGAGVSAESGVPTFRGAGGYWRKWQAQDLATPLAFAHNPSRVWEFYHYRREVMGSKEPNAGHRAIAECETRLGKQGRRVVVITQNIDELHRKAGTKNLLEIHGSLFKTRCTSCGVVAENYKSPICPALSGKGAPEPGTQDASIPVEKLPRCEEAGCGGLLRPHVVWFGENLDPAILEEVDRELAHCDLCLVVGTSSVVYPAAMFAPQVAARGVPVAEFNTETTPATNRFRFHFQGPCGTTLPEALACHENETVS

[10] = HEK293 Cytotoxicity Assay Measured in Cell-Based System Using Plate Reader - 7071-01_Inhibitor_Dose_CherryPick_Activity_Set2.; type: functional
HEK293 [11] = assay: viability loss in HEK293T cells – cell-based, ATP luminescence, cherry-pick samples, cytotoxicity control, dose response (AID 687005); type: functional; details: Homo sapiens;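 note: cells exposed to compound for 48 hours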
[12] = toxicity to human hepatoma HepG2 cells – cell-based, cherry-picked samples, cytotoxicity control, dose response (AID 1159577); type: functional
HeLa = assay: viability loss in HeLa cells – cell-based, ATP luminescence, cherry-pick samples, cytotoxicity control, dose response (AID 687004); type: functional; details: Homo sapiens
[13] = blockers of HIV-1 ZM109 envelope-driven cell-cell fusion – HeLa effector, CEM target cells, luciferase, cherry-pick, dose response (AID 652058); type: functional, cell-based;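 note: luciferase signal from HIV-1 Env mediated cell-cell fusion of effector and target cells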
[14] = off-target signal loss in HeLa-CEM21 co-culture – HeLa F-luc CTL cells, cherry-picked, counter-screen for HIV-1 Env fusion inhibitor project, dose response (AID 652040); type: functional, cell-based;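 note: potency for signal decrease marking cytotoxic or nonspecific inhibition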
[15] = blockers of HIV-1 envelope-mediated cell-cell fusion – cherry-pick, dose response (AID 652057); type: functional, cell-based
[16] = HIV-1 AD8 envelope cell-cell fusion blockers – cherry-pick, dose response (AID 652062); type: functional, cell-based;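 note: luciferase signal from cell-cell fusion driven by HIV-1 clade B AD8 Env; potency is for inhibitors of fusion seen as a drop in luminescence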
Mu-type opioid receptor = Mu-type opioid receptor (Homo sapiens, UniProt P35372); type: functional, cell-based;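 note: U2OS cells with beta-arrestin recruitment to OPRM1 by beta-gal complementation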
Sequence of Mu-type opioid receptor (P35372 whole entry): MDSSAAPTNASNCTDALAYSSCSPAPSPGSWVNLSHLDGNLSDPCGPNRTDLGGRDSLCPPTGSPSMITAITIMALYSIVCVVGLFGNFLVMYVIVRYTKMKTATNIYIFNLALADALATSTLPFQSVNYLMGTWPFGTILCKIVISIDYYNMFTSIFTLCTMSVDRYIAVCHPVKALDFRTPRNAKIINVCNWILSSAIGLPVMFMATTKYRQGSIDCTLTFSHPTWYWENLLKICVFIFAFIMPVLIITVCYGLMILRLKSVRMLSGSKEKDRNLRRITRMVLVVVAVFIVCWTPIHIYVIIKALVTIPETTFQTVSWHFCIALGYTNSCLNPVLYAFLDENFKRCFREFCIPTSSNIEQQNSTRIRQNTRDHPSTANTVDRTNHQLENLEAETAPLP

[17] = molecular target: 5-hydroxytryptamine receptor 2A (Mus musculus, UniProt P35363); type: functional, cell-based;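 note: CHO-K1 cells with tagged receptor and beta-arrestin; agonist potency measured as compound-induced activation of the receptor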
Sequence of 5-hydroxytryptamine receptor 2A (P35363 whole entry): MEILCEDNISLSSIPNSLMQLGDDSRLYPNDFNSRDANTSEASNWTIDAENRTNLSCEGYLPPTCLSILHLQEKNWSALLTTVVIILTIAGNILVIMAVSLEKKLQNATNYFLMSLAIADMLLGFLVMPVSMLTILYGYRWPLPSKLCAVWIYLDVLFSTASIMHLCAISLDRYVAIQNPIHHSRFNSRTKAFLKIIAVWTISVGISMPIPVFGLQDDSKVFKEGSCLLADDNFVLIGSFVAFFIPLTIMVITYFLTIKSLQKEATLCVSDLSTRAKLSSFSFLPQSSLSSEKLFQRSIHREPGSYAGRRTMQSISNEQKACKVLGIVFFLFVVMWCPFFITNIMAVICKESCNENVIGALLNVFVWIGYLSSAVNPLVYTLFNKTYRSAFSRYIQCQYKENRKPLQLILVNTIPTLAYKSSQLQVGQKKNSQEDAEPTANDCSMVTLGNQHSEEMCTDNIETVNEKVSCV

[18] = viability loss in THP-1 monocytes – THP-1 cells, cytotoxicity control for Vif-APOBEC3G degradation inhibitor project, dose response (AID 1117359); type: functional; details: THP-1
[19] = viability loss in HEK293 cells – cell-based, plate reader, cherry-picked samples, cytotoxicity control, dose response (AID 743446); type: functional
[20] = A549 cell cytotoxicity, dose response, cytotoxicity control, plate reader, cherry-pick, antagonist series (AID 743412); type: functional, cell-based
HEK293 [21] = assay: EBV LMP1 TES2 canonical NF-kB signalling blockers – cell-based, HEK293, luciferase, cherry-pick, dose response (AID 588343); type: functional; details: Homo sapiens
[22] = blockade of melanocortin 4 receptor signaling – cell-based, plate reader, cherry pick, counter-screen for LGR2 antagonist project, dose response (AID 743444); type: functional;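 note: transfected HEK 293 cells stimulated with alpha-MSH peptide; potency of inhibitors of the alpha-MSH evoked signal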
[23] = blockers of bursicon-stimulated LGR2 cAMP reporter – cell-based, HEK293, CRE-luciferase reporter, cherry pick, set 2, dose response (AID 743343); type: functional;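 note: transfected cells were stimulated with diluted bursicon conditioned medium after compound addition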
[24] = molecular target: T1, Apoptotic protease-activating factor 1 (Homo sapiens, UniProt O14727); type: functional
T1 sequence (O14727 whole entry): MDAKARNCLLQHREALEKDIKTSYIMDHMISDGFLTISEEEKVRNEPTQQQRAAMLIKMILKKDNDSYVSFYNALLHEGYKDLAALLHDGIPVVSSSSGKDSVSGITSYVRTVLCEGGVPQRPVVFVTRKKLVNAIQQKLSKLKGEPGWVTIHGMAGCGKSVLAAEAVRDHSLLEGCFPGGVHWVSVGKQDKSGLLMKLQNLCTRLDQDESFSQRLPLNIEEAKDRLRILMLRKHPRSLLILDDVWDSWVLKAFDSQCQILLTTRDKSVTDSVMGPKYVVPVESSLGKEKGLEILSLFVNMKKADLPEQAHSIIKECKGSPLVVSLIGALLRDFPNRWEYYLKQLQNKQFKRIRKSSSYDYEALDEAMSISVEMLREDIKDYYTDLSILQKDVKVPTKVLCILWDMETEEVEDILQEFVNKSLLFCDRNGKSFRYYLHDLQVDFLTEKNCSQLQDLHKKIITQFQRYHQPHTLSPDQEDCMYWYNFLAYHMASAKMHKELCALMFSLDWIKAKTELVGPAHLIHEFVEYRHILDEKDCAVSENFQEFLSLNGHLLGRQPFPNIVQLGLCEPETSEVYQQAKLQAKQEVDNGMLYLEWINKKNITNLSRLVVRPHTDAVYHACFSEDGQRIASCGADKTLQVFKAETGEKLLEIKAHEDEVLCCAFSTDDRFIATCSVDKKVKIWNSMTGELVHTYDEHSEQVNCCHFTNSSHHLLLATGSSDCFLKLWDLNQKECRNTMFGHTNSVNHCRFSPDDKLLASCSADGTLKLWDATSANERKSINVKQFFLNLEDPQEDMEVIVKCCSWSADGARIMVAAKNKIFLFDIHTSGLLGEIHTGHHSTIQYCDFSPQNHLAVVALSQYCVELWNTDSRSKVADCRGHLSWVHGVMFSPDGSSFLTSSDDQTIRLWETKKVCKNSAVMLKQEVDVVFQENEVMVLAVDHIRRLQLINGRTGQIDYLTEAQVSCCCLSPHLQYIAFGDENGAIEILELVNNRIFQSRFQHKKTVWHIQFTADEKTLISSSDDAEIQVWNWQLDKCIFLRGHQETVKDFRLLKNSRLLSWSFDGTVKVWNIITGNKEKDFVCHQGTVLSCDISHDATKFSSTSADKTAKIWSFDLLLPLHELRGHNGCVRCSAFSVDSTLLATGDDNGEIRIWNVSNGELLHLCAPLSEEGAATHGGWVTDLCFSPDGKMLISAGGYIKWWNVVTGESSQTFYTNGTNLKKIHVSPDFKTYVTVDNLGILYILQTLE

[25] = luciferase reporter signal suppression in cells – H4 neuroglioma cells, luminescence, dose response (AID 1990); type: functional, cell-based
[26] = alpha-synuclein stem-loop luciferase translation blockers – H4 neuroglioma cells, luminescence, confirmation (AID 1988); type: functional, cell-based
[27] = molecular target: T2, Voltage-gated N-type calcium channel alpha-1B subunit/Amyloid beta A4 precursor protein-binding family A member 1 (Homo sapiens, UniProt Q00975+Q02410); type: protein assay
T2 sequence (Q00975 whole entry): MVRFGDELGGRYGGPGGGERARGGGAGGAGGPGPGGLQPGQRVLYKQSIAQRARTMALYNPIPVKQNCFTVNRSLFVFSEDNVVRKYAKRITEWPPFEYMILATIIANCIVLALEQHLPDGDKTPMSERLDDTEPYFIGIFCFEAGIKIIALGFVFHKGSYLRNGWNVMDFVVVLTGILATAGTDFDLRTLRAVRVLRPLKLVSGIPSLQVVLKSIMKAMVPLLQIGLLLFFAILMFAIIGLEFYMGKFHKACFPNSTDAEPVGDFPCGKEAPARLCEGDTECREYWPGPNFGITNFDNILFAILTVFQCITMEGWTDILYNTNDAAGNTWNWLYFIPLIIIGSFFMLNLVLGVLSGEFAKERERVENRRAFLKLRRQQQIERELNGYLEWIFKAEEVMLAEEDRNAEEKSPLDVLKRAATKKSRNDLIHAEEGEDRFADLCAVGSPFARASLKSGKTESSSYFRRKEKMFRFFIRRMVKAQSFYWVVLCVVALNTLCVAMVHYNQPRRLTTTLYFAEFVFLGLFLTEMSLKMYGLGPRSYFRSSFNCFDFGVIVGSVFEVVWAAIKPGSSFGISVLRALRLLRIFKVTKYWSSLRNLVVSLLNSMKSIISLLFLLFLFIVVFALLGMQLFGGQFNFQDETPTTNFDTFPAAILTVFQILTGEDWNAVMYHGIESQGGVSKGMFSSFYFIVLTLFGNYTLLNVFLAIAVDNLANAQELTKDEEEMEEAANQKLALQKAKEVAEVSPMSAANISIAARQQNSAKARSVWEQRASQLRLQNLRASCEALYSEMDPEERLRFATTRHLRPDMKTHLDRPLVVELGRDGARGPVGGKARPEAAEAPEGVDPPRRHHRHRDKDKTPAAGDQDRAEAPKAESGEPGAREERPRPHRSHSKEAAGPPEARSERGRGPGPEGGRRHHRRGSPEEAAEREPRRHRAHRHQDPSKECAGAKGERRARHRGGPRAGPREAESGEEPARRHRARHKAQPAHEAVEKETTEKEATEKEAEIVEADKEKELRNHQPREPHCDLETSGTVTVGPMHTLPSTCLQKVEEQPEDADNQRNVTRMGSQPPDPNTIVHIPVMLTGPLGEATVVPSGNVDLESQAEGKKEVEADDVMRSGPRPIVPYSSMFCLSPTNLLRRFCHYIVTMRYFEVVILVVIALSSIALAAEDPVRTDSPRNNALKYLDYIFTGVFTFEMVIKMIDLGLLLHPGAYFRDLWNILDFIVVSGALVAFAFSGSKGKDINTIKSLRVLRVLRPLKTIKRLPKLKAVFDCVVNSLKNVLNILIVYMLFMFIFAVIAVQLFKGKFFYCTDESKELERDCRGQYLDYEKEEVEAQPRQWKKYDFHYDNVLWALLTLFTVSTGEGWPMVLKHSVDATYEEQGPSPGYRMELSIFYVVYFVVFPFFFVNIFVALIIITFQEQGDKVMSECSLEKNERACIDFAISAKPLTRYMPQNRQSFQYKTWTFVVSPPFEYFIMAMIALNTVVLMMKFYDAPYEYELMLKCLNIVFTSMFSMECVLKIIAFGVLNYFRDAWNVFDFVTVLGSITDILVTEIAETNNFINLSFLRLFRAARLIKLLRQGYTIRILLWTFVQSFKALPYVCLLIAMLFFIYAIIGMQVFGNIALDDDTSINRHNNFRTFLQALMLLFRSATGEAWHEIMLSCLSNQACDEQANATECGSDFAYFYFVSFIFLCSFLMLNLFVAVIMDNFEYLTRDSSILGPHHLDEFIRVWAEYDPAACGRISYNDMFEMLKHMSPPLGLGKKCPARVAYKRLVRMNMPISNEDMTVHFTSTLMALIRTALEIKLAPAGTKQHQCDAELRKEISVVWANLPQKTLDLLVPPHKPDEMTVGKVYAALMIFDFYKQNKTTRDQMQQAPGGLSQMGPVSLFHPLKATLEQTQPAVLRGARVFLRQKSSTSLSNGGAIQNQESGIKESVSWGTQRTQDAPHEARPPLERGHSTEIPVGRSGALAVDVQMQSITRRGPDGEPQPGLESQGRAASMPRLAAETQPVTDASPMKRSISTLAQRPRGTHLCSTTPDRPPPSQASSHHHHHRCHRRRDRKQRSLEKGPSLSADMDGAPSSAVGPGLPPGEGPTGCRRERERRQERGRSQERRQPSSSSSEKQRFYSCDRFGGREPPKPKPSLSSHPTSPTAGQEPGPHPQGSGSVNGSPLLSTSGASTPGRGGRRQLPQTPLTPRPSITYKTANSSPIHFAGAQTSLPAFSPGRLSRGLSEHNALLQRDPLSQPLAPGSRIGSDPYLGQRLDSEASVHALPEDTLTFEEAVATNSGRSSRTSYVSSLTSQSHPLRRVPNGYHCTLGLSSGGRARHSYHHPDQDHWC
T2 sequence (Q02410 whole entry): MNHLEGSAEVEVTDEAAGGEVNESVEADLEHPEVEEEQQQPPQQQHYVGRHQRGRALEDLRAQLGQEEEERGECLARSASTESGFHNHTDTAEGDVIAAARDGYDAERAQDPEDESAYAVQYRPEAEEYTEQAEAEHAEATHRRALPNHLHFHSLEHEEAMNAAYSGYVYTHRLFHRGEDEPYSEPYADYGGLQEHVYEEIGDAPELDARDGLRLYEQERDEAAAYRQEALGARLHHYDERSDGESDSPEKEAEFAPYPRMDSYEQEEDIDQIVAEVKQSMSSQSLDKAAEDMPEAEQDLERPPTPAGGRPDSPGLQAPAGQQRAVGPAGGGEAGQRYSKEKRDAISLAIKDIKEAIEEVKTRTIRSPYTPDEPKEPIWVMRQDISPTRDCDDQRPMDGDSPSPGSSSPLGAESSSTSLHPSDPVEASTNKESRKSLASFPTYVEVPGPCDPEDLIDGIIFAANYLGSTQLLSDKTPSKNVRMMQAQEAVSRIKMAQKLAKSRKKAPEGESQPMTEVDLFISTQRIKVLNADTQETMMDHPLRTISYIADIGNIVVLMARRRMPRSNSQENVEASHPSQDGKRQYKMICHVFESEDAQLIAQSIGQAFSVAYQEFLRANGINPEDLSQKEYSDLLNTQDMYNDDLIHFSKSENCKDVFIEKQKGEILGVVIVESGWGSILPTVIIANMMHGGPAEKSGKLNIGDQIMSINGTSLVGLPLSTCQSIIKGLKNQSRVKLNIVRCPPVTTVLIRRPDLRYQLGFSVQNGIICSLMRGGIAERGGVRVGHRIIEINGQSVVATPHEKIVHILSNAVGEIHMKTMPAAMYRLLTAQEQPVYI

[28] = molecular target: T2, Voltage-gated N-type calcium channel alpha-1B subunit/Amyloid beta A4 precursor protein-binding family A member 1; type: protein assay; remark: listed apart in the source
[29] = Luminescence Cell-Based Dose Response HTS to Identify Inhibitors of 5'UTR Stem-Loop Driven Prion Protein mRNA Translation in H4 Neuroglioblastoma Cells. [Related pubchem assays: 1827 (Project Summary), 1813 (Primary HTS)]; type: functional
[30] = molecular target: T3, Sentrin-specific protease 8 (Homo sapiens, UniProt Q96LD8); type: functional
T3 sequence (Q96LD8 whole entry): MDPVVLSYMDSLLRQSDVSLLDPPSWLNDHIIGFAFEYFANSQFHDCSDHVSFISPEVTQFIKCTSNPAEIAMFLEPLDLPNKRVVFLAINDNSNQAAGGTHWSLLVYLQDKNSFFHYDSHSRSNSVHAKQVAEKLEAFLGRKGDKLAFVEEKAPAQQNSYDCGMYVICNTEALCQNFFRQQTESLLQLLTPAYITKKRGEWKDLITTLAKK

[31] = molecular target: T3, Sentrin-specific protease 8; type: functional; remark: listed apart in the source

C[C@H]1CCCCO[C@@H](CN(C)Cc2ccc(C(F)(F)F)cc2)[C@@H](C)CN([C@@H](C)CO)C(=O)c2cc(NC(=O)Nc3ccc4c(c3)OCO4)ccc2O1
AC50 [1]: 21.1 µM (active) | AC50 [2]: 51.5 µM (active) | AC50 (Paired box protein Pax-8): 7.11 µM (active) | AC50 [3]: 49.6 µM (active)

CN(C)C(=O)c1cccc(-c2cccc(-c3nc(C(=O)NC4CCCCC4)cc4c3[C@H](CCO)N([S@@+]([O-])C(C)(C)C)C4)c2)c1
AC50 [4]: 2.05 µM (active) | AC50 [5]: 0.933 µM (active) | AC50 [6]: 0.736 µM (active) | AC50 [7]: 1.32 µM (active)

O=C(N/N=C/c1cccs1)c1cc(-c2ccc3ccccc3c2)[nH]n1
IC50 [8]: > 20 µM (inactive)

O=C(NCCO)Nc1ccc(Cl)cc1
AC50 [9]: > 30 µM (inactive)

CC(C)NC(=O)Nc1ccc2c(c1)C(=O)N([C@@H](C)CO)C[C@@H](C)[C@@H](CN(C)S(=O)(=O)c1ccc(Cl)cc1)OCCCC[C@@H](C)O2
AC50 [10]: 20.6 µM (active) | AC50 (HEK293 [11]): 20.6 µM (active)

O=C(C1CC1)N1CC(=O)N2[C@H](CO)[C@H](c3ccc(C#CCc4ccccc4)cc3)[C@H]2C1
AC50 [4]: 9.66 µM (active) | AC50 [12]: > 39 µM (inactive)

C/C=C/c1ccc([C@@H]2[C@H]3CN(C(=O)Nc4ccc(OC)cc4)CCCCN3[C@H]2CO)cc1
AC50 [10]: 24.4 µM (active) | AC50 (HEK293 [11]): 24.4 µM (active) | AC50 (HeLa): > 52 µM (inactive)

C[C@@H]1CN([C@H](C)CO)C(=O)c2cc(NC(=O)Nc3cccc4ccccc34)ccc2O[C@@H]1CN(C)C(=O)Nc1ccccc1
AC50 (HeLa): 22.8 µM (active)

O=C(NC12CC3CC(CC(C3)C1)C2)OCCNC1CCCCC1
AC50 [13]: 6.43 µM (active) | AC50 [14]: 4.34 µM (active) | AC50 [15]: 2.91 µM (active) | AC50 [16]: 7.98 µM (active)

COc1ccc(CN2CCN(C(=O)c3ccco3)CC2)cc1OCc1ccccc1
EC50 (Mu-type opioid receptor): 92.5 µM (inactive) | EC50 [17]: 1.48 µM (active)

COc1ccc2ccccc2c1CN1CCN(C(=O)c2ccco2)CC1
EC50 (Mu-type opioid receptor): 92.5 µM (inactive) | EC50 [17]: 1.77 µM (active)

CN(C)N1C(N)=C(C#N)C(c2cccnc2)C2=C1CCCC2=O (stereo not drawn)
CC50 [18]: > 40 µM (active)

COc1cccc(CN2C[C@@H]3N[C@H](C2)[C@@H]3c2ccc(-c3cccc(C#N)c3)cc2)c1
AC50 [4]: 3.66 µM (active) | AC50 [12]: 9.19 µM (active)

CCCCC(=O)Nc1ccc(N2CCCC2)cc1
IC50 [8]: > 20 µM (inactive)

C[C@@H]1CN([C@H](C)CO)C(=O)c2cc(C#CCc3ccccc3)cnc2O[C@H]1CN(C)CC1CCCC1
AC50 [4]: 1.91 µM (active) | AC50 [12]: 13.5 µM (active)

Cc1ccc(C(=O)Nc2ccc3ncccc3c2)cc1
AC50 [19]: > 52 µM (inactive) | AC50 [10]: 20.5 µM (active) | AC50 [20]: > 52 µM (inactive) | AC50 (HEK293 [21]): 1.6 µM (active) | AC50 (HEK293 [11]): 20.5 µM (active) | AC50 (HeLa): > 52 µM (inactive) | AC50 [22]: 3.88 µM (active) | AC50 [23]: 1.96 µM (active)

CCn1c(N2CCN(S(=O)(=O)c3ccc(OC)cc3)CC2)nc2ccccc21
EC50 (Mu-type opioid receptor): 92.5 µM (inactive) | EC50 [17]: 30 µM (inactive)

Cc1c(C(=O)OCC(O)=C(C#N)c2nc3ccccc3[nH]2)oc2ccc(Br)cc12
AC50 [9]: > 30 µM (inactive)

Cc1ccc2c(c1)c1c3n2CCN(CCC#N)C3CCC1 (stereo not drawn)
AC50 [14]: 1.89 µM (active) | AC50 [15]: 12.9 µM (active)

Cc1ccc(S(=O)(=O)Nc2ccc3c(c2)CC(=O)N([C@H](C)CO)C[C@H](C)[C@H](CN(C)Cc2ccc(Cl)c(Cl)c2)O3)cc1
AC50 [19]: > 47 µM (inactive) | AC50 [20]: 24.7 µM (active) | AC50 [22]: 32.4 µM (active)

O=C(Nc1cccc(C(F)(F)F)c1)c1ccc2nc(-c3ccco3)c(-c3ccco3)nc2c1
IC50 [8]: > 20 µM (inactive) | IC50 [24]: 43.9 µM (active)

CCOC(=O)c1nn(-c2ccc(C)c(C)c2)c(=O)c2c(N)scc12
EC50 [25]: 13.8 µM (active) | EC50 [26]: > 120 µM (not active) | IC50 [27]: 9.97 µM (active) | IC50 [24]: 42.2 µM (active) | IC50 [28]: > 50 µM (inactive) | EC50 [29]: > 120 µM (not active) | IC50 [30]: 5.63 µM (active) | IC50 [31]: 5.03 µM (active)
